For series [1], the system named is GMC101 strain expressing human β-amyloid in muscle. Nature of the series: Alzheimer's disease model: paralysis of GMC101 strain. It is filed as in vivo, Caenorhabditis elegans. The conditions noted are these: for paralysis with age: 20° C., monitored during adulthood. From the text: Data display from six independent biological replicates, n≥215.
FIG. 4b illustrates that paralysis of GMC101 Alzheimer's disease model is ameliorate with TS and ES.
Assays performed with normal NGM plates. Data display from three independent biological replicates, n>130.
FIG. 15 illustrates that treatment with Androsterone Sulfate (AS) ameliorates the symptoms of Alzheimer's model in Caenorhabditis elegans. The strain GMC101 expresses the human b-amyloid in muscle cells and generate paralysis with age. […] Data from 5 biological replicates. Paralysis was monitored during adulthood. […] More than 200 nematodes were analyzed. Nematodes were synchronized and assayed at 20° C.

In series [2] the test system is NL5901 strain expressing α-synuclein in muscle cells. It is filed as in vivo, Caenorhabditis elegans. The conditions noted are these: 1 μg/ml.
Series [3] concerns mammalian model with intrahippocampal administration of βA oligomers. As to conditions: local administration; cited from earlier work.
A further series deals with C. elegans. Nature of the series: Longevity (lifespan) assay in C. elegans. The series is classed as in vivo, Caenorhabditis elegans. From the text: Worms were cultivated in UV-killed E. coli.
FIGS. 13c and 13d illustrate that additional biological replicates of longevity curve with sulfated C19 steroid hormones.

A further series concerns daf-2(e1370). In words: Development / larval arrest at 25° C. (daf-2 interaction). The series is classed as in vivo, Caenorhabditis elegans. As to conditions: for L1 arrest: daf-2(e1370) background. On the procedure: FIG. 5i illustrates example of sul-2(pv17) larvae, Dauer larval arrest of daf-2(e1370) or L1 arrest of daf-2(e1370); sul-2(pv17) and daf-2(e1370); sul-2(gk187) at 25° C. Animals were grown up to L4 at 16° C., then shifted at 25° C., progeny were scored or imaged after 72 hours. Photographs were taken in a Leica scope.
Photographs were taken in a Leica scope. Arrow heads: Dauers, arrows: L1s.

For series [4], the system named is Q40 aggregates (AM141 strain). In words: Huntington model: polyglutamine (Q40) aggregates. The series is classed as in vivo, Caenorhabditis elegans. As to conditions: Q40 background; 1 μg/ml; 5-day old worms. From the text:
Strains AM140 and AM141 respectively.
In this model, GFP-labelled dopaminergic neurons die due to α-synuclein toxicity. […] We also tested two different strains of Alzheimer's disease (AD) in worms, where immobility is caused by expression of βA protein in muscle cells.

In series [5] the test system is CL2006 strain expressing human β-amyloid in muscle. In words: Alzheimer's disease model: paralysis with age of CL2006 strain. It is filed as in vivo, Caenorhabditis elegans. From the text:
FIG. 12g illustrates that expression of human β-amyloid in muscle provokes paralysis with age (CL2006 strain) that is ameliorated by STX64 treatment. Log-rank (Mantel-Cox) test, for sul-2 deletion p=0.0027 and STX treatment p=0.007.

For series [6], the system named is wild type mice injected with β-amyloid oligomers in the hippocampus. Nature of the series: Passive avoidance test, acute AD model (intrahippocampal β-amyloid oligomers). The series is classed as in vivo. From the text:
FIGS. 3i and 3j illustrate that the effect of intrahippocampal and oral administration of STX64 in the passive avoidance test in wild type mice injected with β-amyloid oligomers in the hippocampus. The number of mice in each group were >5.
FIG. 3p illustrates effect of oral administration with STX64 in more than 15-month-old APP-PS1 mice, and comparation with APP-PS1 and wild type mice older than 15 months in the passive avoidance test. The number of mice in each group were >5. In histological analysis, * represent significant differences between vehicle- and STX64 administrated APP-PS1 mice. […]
As STX64 ameliorated neurodegeneration in C. elegans models, we tested the effect of this drug on cognitive alterations provoked by intrahippocampal βA oligomers infusion, an acute AD mammalian model (FIG. 3i). […] To evaluate the effect of STX64 oral treatment on amyloid pathology in a chronic AD mice model, we assessed the effect of 3-4 weeks of STX64 oral treatment on amyloid deposition in the […] (the cerebral cortex and the hippocampus) of >15-month-old APP-PS1 mice (FIG. 4k). […]

In series [7] the test system is APP-PS1 mice. Nature of the series: β-amyloid deposition in chronic AD model. The series is classed as in vivo. On the procedure: FIG. 3k illustrates that representative β-amyloid-immunoreactive images assessed in the frontal cortex and the hippocampus of APP-PS1 mice older than 15 months of age after 3-4 weeks of vehicle or STX64 intake (0.005 mg/ml in drink water).
FIGS. 3l-3n illustrate quantification of percentage of β-amyloid area (c), deposition density (d) and average plaque size (e) in the frontal cortex and the hippocampus of >15 months-old APP-PS1 mice after 3-4 weeks of oral administration with STX64 or vehicle. n=4 mice per groups.
FIG. 3o illustrates temporal course of β-amyloid deposition in APP-PS1 mice and the effect of 3-4 weeks STX64 oral treatment on β-amyloid area in the frontal cortex (upper panel) and the hippocampus (lower panel). The number of microphotographs used was more than 3 in all the mice used.
As STX64 ameliorated neurodegeneration in C. elegans models, we tested the effect of this drug on cognitive alterations provoked by intrahippocampal βA oligomers infusion, an acute AD mammalian model (FIG. 3i). […] To evaluate the effect of STX64 oral treatment on amyloid pathology in a chronic AD mice model, we assessed the effect of 3-4 weeks of STX64 oral treatment on amyloid deposition in the […] (the cerebral cortex and the hippocampus) of >15-month-old APP-PS1 mice ([…]). […] We wondered if this histological improvement correlated with amelioration of cognitive behavioral deficit. For that, we compared cognition capacities in APP-PS1 mice older than 15-month-old treated with vehicle or STX64 for 3-4 weeks.

Series [8] relates to APP-PS1 mice. In words: Passive avoidance test in chronic AD model. The series is classed as in vivo. The conditions noted are these: APP-PS1 mice older than 15 months; 3-4 weeks oral. From the text: FIG. 3p illustrates effect of oral administration with STX64 in more than 15-month-old APP-PS1 mice, and comparation with APP-PS1 and wild type mice older than 15 months in the passive avoidance test. The number of mice in each group were >5. In histological analysis, * represent significant differences between vehicle- and STX64 administrated APP-PS1 mice. In behavioral test, * represent significant differences between the short-term and long-term memory sessions (STM and LTM, respectively) and the training session in the same experimental group; and, + represent significant differences between the STM and LTM sessions between each experimental group and β-amyloid group. A symbol, p<0.05, two symbols, p<0.01, and three symbols, p<0.001.
As STX64 ameliorated neurodegeneration in C. elegans models, we tested the effect of this drug on cognitive alterations provoked by intrahippocampal βA oligomers infusion, an acute AD mammalian model (FIG. 3i). […] To evaluate the effect of STX64 oral treatment on amyloid pathology in a chronic AD mice model, we assessed the effect of 3-4 weeks of STX64 oral treatment on amyloid deposition in the […] (the cerebral cortex and the hippocampus) of >15-month-old APP-PS1 mice (FIG. 4k). […] We wondered if this histological improvement correlated with amelioration of cognitive behavioral deficit. […]

The mark [9] stands for this setting: wild type background, hormone 1 μg/ml.
Setting [10] is: thermodependent paralysis, 1 μg/ml.

Entries after “also recorded” stand apart in the source; their conditions may differ. Counter-ions that a name gives are not always drawn.

For `C[C@]12CC[C@@H](OS(=O)(=O)O)C[C@@H]1CC[C@@H]1[C@@H]2CC[C@]2(C)C(=O)CC[C@@H]12` [AS, [(3R,5S,8R,9S,10S,13S,14S)-10,13-Dimethyl-17-oxo-1,2,3,4,5,6,7,8,9,11,12,14,15,16-tetradecahydrocyclopenta[a]phenanthren-3-yl] sulfate], the paralysis with age result in series [1] (1 μg/ml) and in series [1] (5 μg/ml) was “reduce this effect” throughout.

As to `C[C@]12CC[C@H](O)CC1=CC[C@@H]1[C@@H]2CC[C@]2(C)C(=O)CC[C@@H]12` [DHEA], the mobility with age entry in series [2] is given as “showed no effect; also recorded: no effect is observed”.

Take `CCCCCCCCCCCCCC(=O)NCCc1ccc(OS(N)(=O)=O)cc1` [DU-14]: the memory loss result in [3] was “could alleviate memory loss”.

Regarding `C[C@]12CC[C@H]3[C@@H](CCC4=CC(=O)CC[C@@]43C)[C@@H]1CC[C@H]2OS(=O)(=O)O` [ES, N,N-diethylethanamine; [(8R,9S,10R,13S,14S,17R)-10,13-dimethyl-3-oxo-1,2,6,7,8,9,11,12,14,15,16,17-dodecahydrocyclopenta[a]phenanthren-17-yl] hydrogen sulfate], the life span entry in the series on C. elegans (sul-2(gk187) / sul-2 mutants background, hormone 1 μg/ml) was “did not further increase longevity in sul-2 mutants backgrounds; also recorded: does not further increase in sul-2(gk187)”; in the series on C. elegans (sul-2(pv17) background, hormone 1 μg/ml), “does not increase further in sul-2(pv17)”; in the series on C. elegans (setting [9]), “increases lifespan in wild type background; also recorded: increased in longevity on a wild type background; also recorded: increases life span in a wild type background”. Moreover, the mobility with age entry in series [2] was “improves the mobility”. For the same compound, the paralysis phenotype entry is on record as “reduced” in series [1] (normal NGM plates, 1 μg/ml) and “ameliorate” in [1] (setting [10]). Further, the L1 arrest result with daf-2(e1370) is “increase”.

As to `NS(=O)(=O)Oc1ccc2c3c(c(=O)oc2c1)CCCCC3` [STX64], the “lifespan, dependence on daf-36” value in the series with C. elegans (daf-36 background, STX64 1 μg/ml) is “DAF-36 is required for the longevity; also recorded: necessary for the increase of longevity”. Moreover, the life span entry is listed as “not in sul-2 (gk187) background; also recorded: does not further increase the longevity of sul-2 deletion mutants” in the series with C. elegans (sul-2 (gk187) deletion background, STX64 1 μg/ml, UV-killed E. coli); “increases lifespan in wild type animals; also recorded: an increase in longevity” in the series with C. elegans (wild type animals, STX64 1 μg/ml, UV-killed E. coli); “increases lifespan of wild type” in the series with C. elegans (wild type, non-UV E. coli). In series [2], the mobility with age entry is “significantly improved mobility; also recorded: protective effect”. Moreover, the “number of Q40 aggregates” value in series [4] is recorded as “reduced the number of aggregates; also recorded: Q40 aggregates are reduced”. Moreover, in series [1] (setting [10]), the paralysis phenotype entry was “delayed paralysis; also recorded: the paralysis phenotype is ameliorated”. In addition, in series [5], the paralysis with age entry is on record as “delayed paralysis; also recorded: ameliorated”. In addition, in the series on daf-2(e1370), the L1 arrest entry is on record as “mainly arrests in L1”. In the series with daf-2(e1370) (wild type), the development result is given as “does not affect development of wild type”. Besides, the results for the “cognitive deficiencies, passive avoidance test” value (in series [6] (local (intrahippocampal) administration); in series [6] (systemic (oral) administration); in the series with APP-PS1 mice [8]) were “reverted the cognitive deficiencies”, “reverted the cognitive deficiencies” and “completely reverted cognitive deficiencies”, respectively. In the series with APP-PS1 mice [7] (>15-month-old APP-PS1 mice, 3-4 weeks oral, 0.005 mg/ml in drink water, cortex and hippocampus), the βA plaque density entry is on record as “significant reduction”. Besides, the βA plaque size result in the series with APP-PS1 mice [7] (>15-month-old APP-PS1 mice, 3-4 weeks oral, cortex) is given as “significant reduction”. The βA immunoreactive area entry with APP-PS1 mice [7] (>15-month-old APP-PS1 mice, 3-4 weeks oral, cortex and hippocampus) is reported as “reduced in both tissues”. Further, the “βA deposition versus normal temporal course” value in the series on APP-PS1 mice [7] (>15-month-old treated mice compared to un-treated APP-PS1 mice of 10-12 months) is “reduces βA deposition”.

With `C[C@]12CC[C@H]3[C@@H](CCC4=CC(=O)CC[C@@]43C)[C@@H]1CC[C@@H]2OS(=O)(=O)O` [TS, [(8R,9S,10R,13S,14S,17S)-10,13-dimethyl-3-oxo-1,2,6,7,8,9,11,12,14,15,16,17-dodecahydrocyclopenta[a]phenanthren-17-yl]hydrogen sulfate], the life span entry with C. elegans (setting [9]) is given as “do not affect; also recorded: does not affect longevity”. In addition, the mobility with age result in series [2] is listed as “improves the mobility”. In addition, the paralysis phenotype entry is given as “reduced” in [1] (normal NGM plates, 1 μg/ml) and “ameliorate” in series [1] (setting [10]). In addition, the L1 arrest entry in the series with daf-2(e1370) is “increase”.

On to `C[C@]12CC[C@H]3[C@@H](CCC4=CC(=O)CC[C@@]43C)[C@@H]1CC[C@@H]2O` [testosterone], for which, in [2], the mobility with age result is recorded as “showed no effect; also recorded: no effect is observed”.

On to dehydroepiandrosterone sulfate [DHEAS], for which, in the series on C. elegans (setting [9]), the life span result is reported as “do not affect; also recorded: does not affect longevity”. Further, in series [2], the mobility with age entry is “improves the mobility”. The L1 arrest entry with daf-2(e1370) was “increase”.

Take pregnenolone sulfate: the mobility with age result in series [2] was “showed no effect; also recorded: no effect is observed”.

Values taken from patent US12702673B2, “Sulfated C19 steroid hormones to treat and/or prevent proteotoxicity in protein-aggregation diseases” (U[…] DE OLAVIDE, priority 2020, dated 2026).
